Results: patent US7619076B2, “Synthetic compounds useful as nodulation agents of leguminous plants and preparation processes thereof” (Bayer Cropscience S.A., priority 2003, dated 2009)
Entries after “also recorded” stand apart in the source; their conditions may differ.

How the values were obtained:
[1] = system: MtENOD11::GUS in plant bearing a mutation in the DMI1 gene; experiment: Induction of early nodulin ENOD11 transcription, MtENOD11::GUS reporter, plants bearing a mutation in the DMI1 gene; format: in vivo, Medicago truncatula; conditions: DMI1 mutant plants, 6 hours LCO treatment, X-Gluc
Procedure: (§1) These tests are performed to determine whether the synthetic LCOs induce symbiotic responses by activation on the same signal transduction pathway as the natural Nod factors. The tests are performed on the model legume Medicago truncatula. […] The compound that serves as reference is the sulfated tetramer 12 acylated with C16:2Δ2E,9Z chain, which is an analog of the natural Nod factor. The control is the plant cultivated in the absence of LCO.
(§2) A new gene of Medicago truncatula, MtENOD11, coding for an RPRP (Repetitive proline-rich protein), and transcribed during the first steps of infection of nodulation on the nodule roots and tissues was identified (Journet et al. Mol. Plant-Microbe Interact., 14, 737-748, 2001). Using the transgenic Medicago truncatula plant expressing the fusion MtENOD11::GUSA, it is possible to determine whether a Nod factor analog added to the culture medium of the plant has induced transcription of the ENOD11 gene.
(§3) For the ENOD11 transcription tests, a Fahraeus medium is used as for the modulation tests, but without agar. The seedlings are placed on paper in pockets containing the culture medium. […] The number of roots giving a characteristic blue response is then counted.

MtENOD11::GUSA = experiment: Induction of early nodulin ENOD11 transcription, MtENOD11::GUSA reporter, wild-type Jemalong plants; format: in vivo, Medicago truncatula; conditions: 6 hours LCO treatment, X-Gluc blue roots counted, FIG. 5
Procedure: as §1, §2, §3

alfalfa = experiment: Nodulation tests on alfalfa (induction of the formation of root nodules); format: in vivo; conditions: alfalfa plantlets; for nodulation activity relative to the benzamide derivative 3: FIG. 2-4
Procedure: The sulfated products are tested on alfalfa for induction of the formation of root nodules, and on the model legume Medicago truncatula for induction of the expression of a symbiotic gene coding for an early nodulin. Alfalfa plantlets are grown under axenic conditions in test tubes on a nitrogen-poor agar medium (Demont-Caulet et al., Plant Physiol., 120, 83-92, 1999). Untreated plantlets serve as control. Natural Nod or synthetic LCO factors are added at the concentrations indicated.

Lotus corniculatus = experiment: Root hair deformation assay on Lotus corniculatus; format: in vivo; parameters: key to Root hair deformation (Had) response: The responses were classified “+” when the proportion of Had+ was significantly higher (at the probability level P=0.05) among the treated plants compared with the untreated control; conditions: for Root hair deformation (Had) response: 15 plants, 16 hr incubation
Procedure: Seeds of Lotus corniculatus (cv Rodeo) were sterilized. Germinated seeds with rootlets about 1 cm long were aseptically transferred onto Farhaeus soft agar plates. Plates were sealed with Parafilm and placed vertically for two days in a plant growth chamber (at 25° C., with a 16-hr light period, a relative humidity of 75%, OsramVFluora L 77 as the type of light, and light intensity at the level of the top of the plates of 30 μE.m-2.s-1) to allow plant growth and root hair development. Then 2 ml of a Nod factor derivative sterile solution was poured to cover the Lotus root system, and after 30 mm, excess liquid was removed. A further incubation was performed for 16 hr in the plant growth chamber. The roots of the five plants were transferred between slide and cover slip and observed by bright field microscopy after staining by methylene blue.
Hair deformation (Had) activity was estimated by a limit dilution method. Nod factor derivatives were applied at concentrations ranging from 10^-7 M to 10-11 M. The activity of two DP5 chitin derivatives were compared, the soybean Nod factor and its benzoylated analog 10. Both compounds were O-fucosylated at the reducing end, but differed by the N-substitution on the terminal non-reducing glucosamine residue, either C18:1 N-acylated like the soybean Nod factor or N-benzoylated. Each compound was dissolved in water/ethanol 50/50; 0,01% Chaps was added at a concentration of 1 mM. These stock solutions were then diluted in water. […] The statistical significance (at the P=0.05) of the proportion of <<+>> responses was calculated using the ratio comparisons based on the Fisher's <<Exact>> test (SAS software). Experiments were carried out twice.
Fifteen plants were used for each treatment and each dilution. Sixty six untreated control plants were used to estimate the intrinsic plant variability for the Hair deformation character. […] Data were analysed using the Fisher's “Exact” test.

Compound: CCCCCC/C=C\CCCOc1cccc(C(=O)N[C@H]2[C@H](O[C@H]3[C@H](O)[C@@H](NC(C)=O)[C@H](O[C@H]4[C@H](O)[C@@H](NC(C)=O)[C@H](O[C@H]5[C@H](O)[C@@H](NC(C)=O)C(O)O[C@@H]5COS(=O)(=O)[O-])O[C@@H]4CO)O[C@@H]3CO)O[C@H](CO)[C@@H](O)[C@@H]2O)c1.[Na+] (stereo partly drawn) [compound 3, 2-acetamido-4-O-{2-acetamido-4-O-[2-acetamido-2-deoxy-4-O-(2-deoxy-2-(N-3-(undec-4Z-enyloxy)benzoyl)amino-β-D-glucopyranosyl)-β-D-glucopyranosyl]-2-deoxy-β-D-glucopyranosyl}-2-deoxy-6-O-sulfo-D-glucopyranose, sodium salt]
- ENOD11::GUS response in plants bearing the DMI1 mutation [1]: does not induce any response
- ENOD11 transcription, times less active than the reference compound, the acylated tetramer 12 (MtENOD11::GUSA): approximately 10 times
- nodulation activity on alfalfa (alfalfa; axenic, nitrogen-poor agar medium, result in words, sodium salt): advantageous activity; also recorded: most active synthetic compound
- nodulation activity relative to the sulfated tetramer 11 acylated with the reference C16:1Δ9Z chain (alfalfa; FIG. 1): similar

Compound: CCCCCC/C=C\CCCOc1cccc(CN(C(C)=O)[C@H]2[C@H](O[C@H]3[C@H](O)[C@@H](NC(C)=O)[C@H](O[C@H]4[C@H](O)[C@@H](NC(C)=O)[C@H](O[C@H]5[C@H](O)[C@@H](NC(C)=O)C(O)O[C@@H]5COS(=O)(=O)[O-])O[C@@H]4CO)O[C@@H]3CO)O[C@H](CO)[C@@H](O)[C@@H]2O)c1.[Na+] (stereo partly drawn) [compound 5, 2-acetamido-4-O-{2-acetamido-4-O-[2-acetamido-2-deoxy-4-O-(2-deoxy-2-(N-3-(undec-4Z-enyloxy)benzyl)acetamido-β-D-glucopyranosyl)-β-D-glucopyranosyl]-2-deoxy-β-D-glucopyranosyl}-2-deoxy-6-O-sulfo-D-glucopyranose, sodium salt]
- nodulation activity relative to the benzamide derivative 3 (alfalfa): lower

Compound: CCCCCCC#CCCCOc1cccc(C(=O)N[C@H]2[C@H](O[C@H]3[C@H](O)[C@@H](NC(C)=O)[C@H](O[C@H]4[C@H](O)[C@@H](NC(C)=O)[C@H](O[C@H]5[C@H](O)[C@@H](NC(C)=O)C(O)O[C@@H]5COS(=O)(=O)[O-])O[C@@H]4CO)O[C@@H]3CO)O[C@H](CO)[C@@H](O)[C@@H]2O)c1.[Na+] (stereo partly drawn) [compound 7, 2-acetamido-4-O-{2-acetamido-4-O-[2-acetamido-2-deoxy-4-O-(2-deoxy-2-(N-3-(undec-4Z-ynyloxy)benzoyl)amino-β-D-glucopyranosyl)-β-D-glucopyranosyl]-2-deoxy-β-D-glucopyranosyl}-2-deoxy-6-O-sulfo-D-glucopyranose, sodium salt]
- nodulation activity relative to the benzamide derivative 3 (alfalfa): comparable

Compound: CCCCCC/C=C\CCCOc1cccc(CN[C@H]2[C@H](O[C@H]3[C@H](O)[C@@H](NC(C)=O)[C@H](O[C@H]4[C@H](O)[C@@H](NC(C)=O)[C@H](O[C@H]5[C@H](O)[C@@H](NC(C)=O)C(O)O[C@@H]5COS(=O)(=O)[O-])O[C@@H]4CO)O[C@@H]3CO)O[C@H](CO)[C@@H](O)[C@@H]2O)c1.[Na+] (stereo partly drawn) [compound 4, 2-acetamido 4-O-{2-acetamido-4-O-[2-acetamido-2-deoxy-4-O-(2-deoxy-2-(N-3-(undec-4Z-enyloxy)benzyl)amino-β-D-glucopyranosyl)-β-D-glucopyranosyl]-2-deoxy-β-D-glucopyranosyl}-2-deoxy-6-O-sulfo-D-glucopyranose, sodium salt]
- nodulation activity relative to the benzamide derivative 3 (alfalfa): moderate activity

Compound: CCCCCC/C=C\CCCOc1cccc(C(=O)NC2C(O)[C@H](O)C(CO)O[C@H]2O[C@@H]2C(CO)O[C@@H](O[C@@H]3C(CO)O[C@@H](O[C@@H]4C(CO)O[C@@H](O[C@@H]5C(CO[C@@H]6OC(C)[C@@H](O)C(O)C6O)OC(O)C(NC(C)=O)C5O)C(NC(C)=O)C4O)C(NC(C)=O)C3O)C(NC(C)=O)C2O)c1 (stereo partly drawn) [compound 10, 2-acetamido-4-O-[2-acetamido-4-O-{2-acetamido-4-O-[2-acetamido-2-deoxy-4-O-(2-deoxy-2-(N-3-(undec-4Z-enyloxy)benzoyl)amino-β-D-glucopyranosyl)-β-D-glucopyranosy]-2-deoxy-β-D-glucopyranosyl}-2-deoxy-β-D-glucopyranosyl]-2-deoxy-6-O-(-α-L-fucopyranosyl)-D-glucopyranose]
- Root hair deformation (Had) response (Lotus corniculatus; 10^−7 M): +
- Root hair deformation (Had) response (Lotus corniculatus; 10^−8 M): +
- Root hair deformation (Had) response (Lotus corniculatus; 10^−9 M): +
- concentration at which activity is significant in the root hair bioassay (Lotus corniculatus; limit dilution method): nanomolar
- activity on the Lotus corniculatus root hair bioassay (Lotus corniculatus; result in words): high activity
